Like-named read-outs stand apart in the source and are kept apart here.
Tests used:
[1] = molecular target: T1, baculovirus-expressed ALK (Homo sapiens, UniProt Q9UM73); test: ALK Kinase Assay (ELISA-type, time-resolved fluorescence); type: biochemical
T1 construct: host or cells: baculovirus expression system
Summary of the method: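 Wells were coated with phospholipase C-γ at 10 μg/mL in Tris-buffered saline. Adding 30 ng/ml enzyme started the reaction, which ran at 37° C for 15 minutes before Eu-N1 PT66 antibody detection. Percent inhibition versus log10 concentration gave IC50 by variable-slope fit.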

[2] = molecular target: T2, c-Met (cytoplasmic domain) (Homo sapiens, UniProt P08581); test: c-Met Kinase Assay (same methods as for ALK, with modifications); type: biochemical
T2 construct: 10 ng/mL c-Met (cytoplasmic domain, Invitrogen Corporation #PV3143); purchased Invitrogen Corporation PV3143
T2 sequence (P08581 956-1390 limits assumed): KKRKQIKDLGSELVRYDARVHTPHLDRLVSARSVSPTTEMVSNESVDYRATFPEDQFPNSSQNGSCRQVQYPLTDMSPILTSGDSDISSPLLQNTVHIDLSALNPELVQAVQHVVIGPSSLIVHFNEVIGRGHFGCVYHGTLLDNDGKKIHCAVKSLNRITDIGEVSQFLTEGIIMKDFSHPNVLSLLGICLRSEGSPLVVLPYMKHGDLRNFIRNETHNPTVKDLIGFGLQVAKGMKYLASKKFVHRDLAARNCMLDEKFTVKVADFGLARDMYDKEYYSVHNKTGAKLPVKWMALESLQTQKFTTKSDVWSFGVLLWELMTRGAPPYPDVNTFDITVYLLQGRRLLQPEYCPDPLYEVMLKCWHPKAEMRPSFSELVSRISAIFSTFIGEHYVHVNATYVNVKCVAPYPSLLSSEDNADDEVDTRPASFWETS
Summary of the method: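 IC50 values were fitted by variable-slope sigmoidal regression of percent inhibition against log compound concentration. Phosphorylation was read with Eu-N1 PT66 antibody after a 15 min, 37 °C reaction. The reaction was initiated with 10 ng/mL c-Met cytoplasmic domain on wells coated with 10 μg/mL PLC-γ in TBS.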

[3] = ALK kinase inhibition, 1 μM ATP, read-out: ALK Activity
[4] = c-Met kinase inhibition, 1 μM ATP, read-out: cMet Activity
[5] = 1 μM ATP (Km level), 30 ng/ml ALK, 37° C., 15 minutes, read-out: ALK Activity (ALK kinase inhibition, IC50 class)
[6] = 1 μM ATP (Km level), 10 ng/mL c-Met, read-out: cMet Activity (c-Met kinase inhibition, IC50 class)
[7] = ALK kinase inhibition, 1 μM ATP (Km level), read-out: ALK Activity
[8] = c-Met kinase inhibition, 1 μM ATP (Km level), read-out: cMet Activity
[9] = 1 μM ATP (Km level), read-out: ALK Activity (ALK Kinase Inhibition, IC50)
[10] = 1 μM ATP (Km level), read-out: cMet Activity (c-Met Kinase Inhibition, IC50)

T1 sequence (Q9UM73 19-1620): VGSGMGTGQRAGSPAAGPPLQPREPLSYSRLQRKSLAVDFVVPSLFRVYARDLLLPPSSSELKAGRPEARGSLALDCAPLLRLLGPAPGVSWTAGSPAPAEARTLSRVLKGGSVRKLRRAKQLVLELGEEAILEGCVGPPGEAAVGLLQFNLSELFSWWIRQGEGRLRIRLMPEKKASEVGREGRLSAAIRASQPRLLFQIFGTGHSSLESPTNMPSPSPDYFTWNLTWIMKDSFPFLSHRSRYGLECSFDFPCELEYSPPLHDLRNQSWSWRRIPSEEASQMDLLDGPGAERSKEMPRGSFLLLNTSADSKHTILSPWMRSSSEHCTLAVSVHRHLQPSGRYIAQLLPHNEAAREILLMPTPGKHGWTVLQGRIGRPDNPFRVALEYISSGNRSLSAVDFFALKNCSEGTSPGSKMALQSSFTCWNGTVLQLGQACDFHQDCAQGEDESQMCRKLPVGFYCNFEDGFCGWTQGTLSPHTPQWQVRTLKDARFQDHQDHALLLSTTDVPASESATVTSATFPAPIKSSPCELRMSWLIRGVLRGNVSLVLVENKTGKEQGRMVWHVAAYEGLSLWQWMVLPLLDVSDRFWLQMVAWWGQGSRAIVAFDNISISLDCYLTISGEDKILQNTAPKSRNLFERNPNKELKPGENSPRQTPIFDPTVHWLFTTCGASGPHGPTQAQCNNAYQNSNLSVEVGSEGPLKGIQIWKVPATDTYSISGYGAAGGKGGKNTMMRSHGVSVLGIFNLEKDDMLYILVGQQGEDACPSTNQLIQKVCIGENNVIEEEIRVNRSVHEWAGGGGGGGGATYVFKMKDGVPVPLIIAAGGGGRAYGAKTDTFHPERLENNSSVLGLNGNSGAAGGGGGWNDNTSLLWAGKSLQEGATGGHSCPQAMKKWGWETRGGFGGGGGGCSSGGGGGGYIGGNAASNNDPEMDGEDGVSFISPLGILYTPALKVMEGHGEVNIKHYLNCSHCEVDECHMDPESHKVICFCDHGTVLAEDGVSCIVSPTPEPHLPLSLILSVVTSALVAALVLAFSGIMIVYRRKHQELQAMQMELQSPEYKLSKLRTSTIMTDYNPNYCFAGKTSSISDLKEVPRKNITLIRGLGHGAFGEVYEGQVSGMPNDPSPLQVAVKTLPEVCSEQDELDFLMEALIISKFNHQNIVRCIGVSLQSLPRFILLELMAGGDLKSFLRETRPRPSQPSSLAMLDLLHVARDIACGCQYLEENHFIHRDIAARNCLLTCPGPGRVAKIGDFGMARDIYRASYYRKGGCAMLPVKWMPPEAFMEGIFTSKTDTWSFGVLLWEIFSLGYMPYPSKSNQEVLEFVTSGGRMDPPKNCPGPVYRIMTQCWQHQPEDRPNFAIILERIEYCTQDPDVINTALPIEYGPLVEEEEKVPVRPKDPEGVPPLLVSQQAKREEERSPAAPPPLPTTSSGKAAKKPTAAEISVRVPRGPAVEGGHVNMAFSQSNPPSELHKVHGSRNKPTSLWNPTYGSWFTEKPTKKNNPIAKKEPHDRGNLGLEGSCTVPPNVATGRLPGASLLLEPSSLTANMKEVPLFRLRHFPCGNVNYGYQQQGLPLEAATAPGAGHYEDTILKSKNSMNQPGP

For CCN1CCN(CC(=O)OCCOC)C(=O)c2ccc(Nc3ncc(Cl)c(N[C@H]4[C@@H]5CC[C@@H](C5)[C@H]4C(N)=O)n3)cc21 [Example 1457, {8-[4-((1R,2S,3R,4S)-3-Carbamoyl-bicyclo[2.2.1]hept-2-ylamino)-5-chloro-pyrimidin-2-ylamino]-1-ethyl-5-oxo-1,2,3,5-tetrahydro-benzo[e][1,4]diazepin-4-yl}-acetic acid 2-methoxy-ethyl ester], the IC50 [1, 3] was under 0.1 µM and the IC50 [2, 4] was 1 to 10 µM.
Work on COc1cc2c(cc1Nc1ncc(Cl)c(Nc3ccccc3S(=O)(=O)N3CCC(O)C3)n1)CCN(CC(=O)N(C)C)CC2 (stereo not shown) [Example 1188, 2-(7-{5-Chloro-4-[2-(3-hydroxy-pyrrolidine-1-sulfonyl)-phenylamino]-pyrimidin-2-ylamino}-8-methoxy-1,2,4,5-tetrahydro-benzo[d]azepin-3-yl)-N,N-dimethyl-acetamide] yielded an IC50 [1, 5] of under 0.1 µM and an IC50 [2, 6] of 1 to 10 µM.
With CCN1C(=O)[C@@H](N2CCOCC2)CCc2c1ccc(Nc1ncc(Cl)c(N[C@H]3[C@@H](C(N)=O)[C@@H]4C=C[C@H]3C4)n1)c2OC (single isomer, unassigned) [Example 1345] the IC50 [1, 5] was under 0.1 µM and the IC50 [2, 6] was over 10 µM.
For CNC(=O)c1ccccc1Nc1nc(Nc2ccc3c(c2)C(=O)NCCN3C)ncc1Cl [Example 428, 2-[5-Chloro-2-(1-methyl-5-oxo-2,3,4,5-tetrahydro-1H-benzo[e][1,4]diazepin-7-ylamino)-pyrimidin-4-ylamino]-N-methylbenzamide], the IC50 [1, 7] was under 0.1 µM and the IC50 [2, 8] was under 0.1 µM.
For CNC(=O)c1cccc(Cl)c1Nc1nc(Nc2ccc3c(c2)CC(=O)N(C)CC3)ncc1Cl [Example 1817, 3-Chloro-2-[5-chloro-2-(3-methyl-4-oxo-2,3,4,5-tetrahydro-1H-benzo[d]azepin-7-ylamino)-pyrimidin-4-ylamino]-N-methylbenzamide], the IC50 [1, 3] was 1 to 10 µM and the IC50 [2, 4] was 0.1 to 1 µM.
CNC(=O)c1cccc(F)c1Nc1nc(Nc2ccc3c(c2)CCOC(=O)N3C)ncc1Cl [Example 1742, 3-Fluoro-2-[5-chloro-2-(5-methyl-6-oxo-5,6,8,9-tetrahydro-7-oxa-5-aza-benzocyclohepten-2-ylamino)-pyrimidin-4-ylamino]-N-methyl-benzamide] showed an IC50 [1, 3] of under 0.1 µM and an IC50 [2, 4] of under 0.1 µM.
With CCN1C(=O)CCCc2cc(Nc3ncc(Cl)c(Nc4ccc(N(C)C)cc4OC)n3)c(OC)cc21 [Example 1340, 7-[5-Chloro-4-(4-dimethylamino-2-methoxy-phenylamino)-pyrimidin-2-ylamino]-1-ethyl-8-methoxy-1,3,4,5-tetrahydro-benzo[b]azepin-2-one] the IC50 [1, 5] was under 0.1 µM and the IC50 [2, 6] was over 10 µM.
Work on CNC(=O)c1ccccc1Nc1nc(Nc2cc3c(cc2Cl)CC2CCC3N2CCOC)ncc1Cl (stereo not shown) [Example 88, 2-{5-Chloro-2-[5-chloro-12-(2-methoxy-ethyl)-12-aza-tricyclo[7.2.1.0*2,7*]dodeca-2(7),3,5-trien-4-ylamino]-pyrimidin-4-ylamino}-N-methyl-benzamide] yielded an IC50 [1, 7] of under 0.1 µM and an IC50 [2, 8] of 1 to 10 µM.
Work on C#CCNC(=O)c1cccc(F)c1Nc1nc(Nc2ccc3c(c2)OCCCN3C(=O)OC2CCCN(C)C2)ncc1Cl (stereo not shown) [Example 1439, 3-[5-Chloro-4-(2-fluoro-6-prop-2-ynylcarbamoyl-phenylamino)-pyrimidin-2-ylamino]-7,8-dihydro-6H-5-oxa-9-aza-benzocycloheptene-9-carboxylic acid 1-methyl-piperidin-3-yl ester] yielded an IC50 [1, 3] of 0.1 to 1 µM and an IC50 [2, 4] of 0.1 to 1 µM.
Work on CCN1C(=O)[C@@H](NC(=O)COC)CCc2c1ccc(Nc1ncc(Cl)c(N[C@H]3[C@@H](C(N)=O)[C@@H]4C=C[C@H]3C4)n1)c2OC (single isomer, unassigned) [Example 1351] yielded an IC50 [1, 5] of under 0.1 µM and an IC50 [2, 6] of over 10 µM.
For C#CCN1CCc2ccc(Nc3ncc(Cl)c(N[C@H]4[C@@H](C(N)=O)[C@@H]5C=C[C@H]4C5)n3)cc2CC1 (relative stereo) [Example 323, (2-exo, 3-exo)-3-[5-Chloro-2-(3-prop-2-ynyl-2,3,4,5-tetrahydro-1H-benzo[d]azepin-7-ylamino)-pyrimidin-4-ylamino]-bicyclo[2.2.1]hept-5-ene-2-carboxylic acid amide], the IC50 [1, 7] was under 0.1 µM and the IC50 [2, 8] was 0.1 to 1 µM.
C#CCN1CCc2ccc(Nc3ncc(Cl)c(Nc4ccccc4C(=O)NC)n3)cc2CC1 [Example 322, 2-[5-Chloro-2-(3-prop-2-ynyl-2,3,4,5-tetrahydro-1H-benzo[d]azepin-7-ylamino)-pyrimidin-4-ylamino]-N-methyl-benzamide] was tested, and the IC50 [1, 7] was under 0.1 µM and the IC50 [2, 8] was under 0.1 µM.
Work on CN(C)S(=O)(=O)c1ccccc1Nc1nc(Nc2ccc3c(c2)CCC(N2CCOCC2)CC3)ncc1Cl (stereo not shown) [Example 1032, 2-[5-Chloro-2-(7-morpholin-4-yl-6,7,8,9-tetrahydro-5H-benzocyclohepten-2-ylamino)-pyrimidin-4-ylamino]-N,N-dimethyl-benzenesulfonamide] yielded an IC50 [1, 5] of under 0.1 µM and an IC50 [2, 6] of 0.1 to 1 µM.
COc1cc2c(cc1Nc1ncc(Cl)c(Nc3ccc(F)cc3S(=O)(=O)N(C)C)n1)CCN(CC(=O)N(C)C)CC2 [Example 831, 2-{7-[5-Chloro-4-(2-dimethylsulfamoyl-4-fluoro-phenylamino)-pyrimidin-2-ylamino]-8-methoxy-1,2,4,5-tetrahydro-benzo[d]azepin-3-yl}-N,N-dimethyl-acetamide] showed an IC50 [1, 9] of under 0.1 µM and an IC50 [2, 10] of over 10 µM.
O=C1CCCc2ccc(Nc3ncc(Cl)c(Nc4c(F)cccc4OC4CCOC4)n3)cc2N1 (stereo not shown) [Example 1273, 8-{5-Chloro-4-[2-fluoro-6-(tetrahydro-furan-3-yloxy)-phenylamino]-pyrimidin-2-ylamino}-1,3,4,5-tetrahydro-1-benzazepin-2-one] showed an IC50 [1, 5] of 0.1 to 1 µM and an IC50 [2, 6] of 0.1 to 1 µM.
CN1C(=O)CCCc2cc(Nc3ncc(Cl)c(Nc4ccccc4-c4nc(C(F)(F)F)c[nH]4)n3)ccc21 [Example 1013, 7-{5-Chloro-4-[2-(4-trifluoromethyl-1H-imidazol-2-yl)-phenylamino]-pyrimidin-2-ylamino}-1-methyl-1,3,4,5-tetrahydro-benzo[b]azepin-2-one] showed an IC50 [1, 9] of 0.1 to 1 µM and an IC50 [2, 10] of 1 to 10 µM.
For COc1cccnc1-c1ccccc1Nc1nc(Nc2ccc3c(c2)CCC(N2CCOCC2)CC3)ncc1Cl (stereo not shown) [Example 1018, 5-Chloro-N*4*-[2-(3-methoxy-pyridin-2-yl)-phenyl]-N*2*-(7-morpholin-4-yl-6,7,8,9-tetrahydro-5H-benzocyclohepten-2-yl)-pyrimidine-2,4-diamine], the IC50 [1, 5] was under 0.1 µM and the IC50 [2, 6] was 1 to 10 µM.
C#CCNC(=O)c1cccc(F)c1Nc1nc(Nc2ccc3c(c2)OCCCN3C(=O)OCCOC)ncc1Cl [Example 1437, 3-[5-Chloro-4-(2-fluoro-6-prop-2-ynylcarbamoyl-phenylamino)-pyrimidin-2-ylamino]-7,8-dihydro-6H-5-oxa-9-aza-benzocycloheptene-9-carboxylic acid 2-methoxy-ethyl ester] gave an IC50 [1, 5] of under 0.1 µM and an IC50 [2, 6] of 0.1 to 1 µM.
Compound CS(=O)(=O)N[C@@H]1CCCC[C@H]1Nc1nc(Nc2ccc3c(c2)CNCCS3(=O)=O)ncc1Cl [Example 520, N-{(1R,2R)-2-[5-Chloro-2-(5,5-dioxo-6,7,8,9-tetrahydro-5H-5lambda*6*-thia-8-aza-benzoylcyclohepten-2-ylamino)-pyrimidin-4-ylamino]-cyclohexyl}-methanesulfonamide] has an IC50 [1, 9] of 0.1 to 1 µM and an IC50 [2, 10] of 1 to 10 µM.
CCN1C(=O)CCC(C)(C)c2ccc(Nc3ncc(Cl)c(Nc4ccc(N5CCOCC5)cc4OC)n3)cc21 [Example 1587, 8-[5-Chloro-4-(2-methoxy-4-morpholin-4-yl-phenylamino)-pyrimidin-2-ylamino]-1-ethyl-5,5-dimethyl-1,3,4,5-tetrahydro-benzo[b]azepin-2-one] gave an IC50 [1, 3] of under 0.1 µM and an IC50 [2, 4] of 1 to 10 µM.
CN1C(=O)CCCc2ccc(Nc3ncc(Cl)c(NC4C5C=CC(C5)C4C(N)=O)n3)cc21 (stereo not drawn) [Example 110, (2-exo,3-exo)-3-[5-Chloro-2-(1-methyl-2-oxo-2,3,4,5-tetrahydro-1H-benzo[b]azepin-8-ylamino)pyrimidin-4-ylamino]-bicyclo[2.2.1]hept-5-ene-2-carboxylic acid amide] showed an IC50 [1, 7] of under 0.1 µM and an IC50 [2, 8] of 0.1 to 1 µM.
“N-(2-{5-Chloro-2-[3-methyl-5-oxo-1-(2,2,2-trifluoro-acetyl)-2,3,4,5-tetrahydro-1H-benzo[e][1,4]diazepin-6-ylamino]-pyrimidin-4-ylamino}-phenyl)-methanesulfonamide and N-(2-{5-Chloro-2-[2-methyl-5-oxo-1-(2,2,2-trifluoro-acetyl)-2,3,4,5-tetrahydro-1H-benzo[e][1,4]diazepin-6-ylamino]-pyrimidin-4-ylamino}-phenyl)-methanesulfonamide (Mixture of regioisomers) [Example 230]” gave an IC50 [1, 7] of under 0.1 µM and an IC50 [2, 8] of 1 to 10 µM.
COc1c(Nc2ncc(Cl)c(N[C@H]3[C@@H](C(N)=O)[C@@H]4C=C[C@H]3C4)n2)ccc2c1CC[C@H](N1CCOCC1)CC2 [Example 881, (1S,2S,3R,4R)-3-[5-Chloro-2-((R)-1-methoxy-7-morpholin-4-yl-6,7,8,9-tetrahydro-5H-benzocyclohepten-2-ylamino)-pyrimidin-4-ylamino]-bicyclo[2.2.1]hept-5-ene-2-carboxylic acid amide] showed an IC50 [1, 9] of under 0.1 µM and an IC50 ([2]; cMet Activity (c-Met Kinase Inhibition, IC50), 1 μM ATP (Km level)) of over 10 µM.
